Test results published in patent US11147272B2, “Pyridone compounds and agricultural and horticultural fungicides comprising the same as active ingredients” (MITSUI CHEMICALS AGRO, INC., priority 2017, dated 2021).

Key:
Botrytis cinerea = assay: Test Example B: Gray mold on tomato; settings: 250 ppm drug solution sprayed on test plant
Plasmopara viticola = assay: Test Example G: Downy mildew on vine; settings: 250 ppm drug solution sprayed (2.5 ml/pot), grape Neomuscat, 7 to 10 days after inoculation
Magnaporthe grisea = assay: whole plant or invertebrate; type: in vivo; settings: 250 ppm drug solution sprayed on test plant
Phytophthora infestans = assay: whole plant or invertebrate; type: in vivo; settings: 250 ppm drug solution sprayed on test plant
Puccinia recondita = assay: Test Example E: Brown rust on wheat; type: in vivo; settings: 250 ppm drug solution sprayed on test plant
Alternaia brassicicola = assay: Test Example C: Alternaria sooty spot on cabbage; type: in vivo; settings: 250 ppm drug solution sprayed on test plant
Excerpt: Seeds of a test plant (cabbage variety: Shikidori) were planted and cultivated until the cotyledons extended.
<Control Value> Control value=100{1−(n/3)}

[1] = tested on: Colletotrichum orbiculare; assay: Test Example H: Anthracnose on cucumber; settings: 250 ppm drug solution sprayed (2.5 ml/pot), cucumber Sagami Hanjiro, 6 to 10 days after inoculation
[2] = tested on: Blumeria graminis f. sp. hordei; assay: Test Example D: Powdery mildew on barley; settings: 250 ppm drug solution sprayed on test plant

| Structure (SMILES) | Test B control value (Botrytis cinerea) | Test G control value (Plasmopara viticola) | Test A control value (Magnaporthe grisea) | Test F control value (Phytophthora infestans) | Test E control value (Puccinia recondita) | Test C control value (Alternaia brassicicola) | Test H control value [1] | Test D control value [2] |
| --- | --- | --- | --- | --- | --- | --- | --- | --- |
| CCCc1ccc(=O)n(CC(F)F)c1-c1c(F)cccc1F [compound 491] | H (more than 50% control value) | L (50% or less control value) | L (50% or less control value) | L (50% or less control value) | H (more than 50% control value) | H (more than 50% control value) | L (50% or less control value) | H (more than 50% control value) |
| CCCc1cc(Cl)c(=O)n(CC(F)F)c1-c1c(F)cccc1F [compound 492] | H (more than 50% control value) | H (more than 50% control value) | H (more than 50% control value) | L (50% or less control value) | H (more than 50% control value) | H (more than 50% control value) | H (more than 50% control value) | H (more than 50% control value) |
| CCCc1cc(Br)c(=O)n(CC(F)F)c1-c1c(F)cccc1F [compound 493] | H (more than 50% control value) | H (more than 50% control value) | H (more than 50% control value) | L (50% or less control value) | H (more than 50% control value) | H (more than 50% control value) | H (more than 50% control value) | H (more than 50% control value) |
| CCCc1cc(I)c(=O)n(CC(F)F)c1-c1c(F)cccc1F [compound 494] | H (more than 50% control value) | H (more than 50% control value) | H (more than 50% control value) | L (50% or less control value) | H (more than 50% control value) | H (more than 50% control value) | H (more than 50% control value) | H (more than 50% control value) |
| CCC(=O)c1cc(Cl)c(=O)n(C)c1-c1c(F)cc(F)cc1F [compound 495] | H (more than 50% control value) | L (50% or less control value) | L (50% or less control value) | L (50% or less control value) | H (more than 50% control value) | H (more than 50% control value) | L (50% or less control value) | H (more than 50% control value) |
| COC(c1cc(Cl)c(=O)n(C)c1-c1c(F)cc(F)cc1F)C(C)C (stereo not shown) [compound 496] | H (more than 50% control value) | H (more than 50% control value) | H (more than 50% control value) | L (50% or less control value) | H (more than 50% control value) | H (more than 50% control value) | H (more than 50% control value) | H (more than 50% control value) |
| CCOC(c1cc(Cl)c(=O)n(C)c1-c1c(F)cc(F)cc1F)C(C)C (stereo not shown) [compound 497] | H (more than 50% control value) | H (more than 50% control value) | H (more than 50% control value) | L (50% or less control value) | H (more than 50% control value) | H (more than 50% control value) | H (more than 50% control value) | H (more than 50% control value) |
| COc1cc(F)c(-c2c(C(OC)C(C)C)cc(Cl)c(=O)n2C)c(F)c1 (stereo not shown) [compound 498] | H (more than 50% control value) | L (50% or less control value) | H (more than 50% control value) | L (50% or less control value) | H (more than 50% control value) | H (more than 50% control value) | H (more than 50% control value) | L (50% or less control value) |
| CCOC(c1cc(Cl)c(=O)n(C)c1-c1c(F)cc(OC)cc1F)C(C)C (stereo not shown) [compound 499] | H (more than 50% control value) | H (more than 50% control value) | H (more than 50% control value) | L (50% or less control value) | H (more than 50% control value) | H (more than 50% control value) | H (more than 50% control value) | H (more than 50% control value) |
| CCn1c(-c2c(F)cc(OC)cc2F)c(C(C)(O)CC)cc(Br)c1=O (stereo not shown) [compound 500] | H (more than 50% control value) | H (more than 50% control value) | H (more than 50% control value) | L (50% or less control value) | H (more than 50% control value) | H (more than 50% control value) | H (more than 50% control value) | L (50% or less control value) |
| CCn1c(-c2c(F)cc(F)cc2F)c(C(OC)C(C)C)cc(Br)c1=O (stereo not shown) [compound 501] | H (more than 50% control value) | L (50% or less control value) | H (more than 50% control value) | L (50% or less control value) | H (more than 50% control value) | H (more than 50% control value) | H (more than 50% control value) | H (more than 50% control value) |
| CCC(OC)c1cc(Cl)c(=O)n(C)c1-c1c(F)cc(F)cc1F (stereo not shown) [compound 502] | H (more than 50% control value) | H (more than 50% control value) | H (more than 50% control value) | L (50% or less control value) | H (more than 50% control value) | H (more than 50% control value) | H (more than 50% control value) | H (more than 50% control value) |
| CCn1c(-c2c(F)cc(OC)cc2F)c(C(OC)C(C)C)cc(Br)c1=O (stereo not shown) [compound 503] | H (more than 50% control value) | H (more than 50% control value) | H (more than 50% control value) | L (50% or less control value) | H (more than 50% control value) | H (more than 50% control value) | H (more than 50% control value) | H (more than 50% control value) |
| CCC(OC)c1cc(Br)c(=O)n(CC)c1-c1c(F)cc(F)cc1F (stereo not shown) [compound 504] | H (more than 50% control value) | H (more than 50% control value) | H (more than 50% control value) | L (50% or less control value) | H (more than 50% control value) | H (more than 50% control value) | H (more than 50% control value) | H (more than 50% control value) |
| CCC(C)(O)c1cc(Cl)c(=O)n(C)c1-c1c(F)cc(F)cc1F (stereo not shown) [compound 505] | H (more than 50% control value) | H (more than 50% control value) | H (more than 50% control value) | L (50% or less control value) | H (more than 50% control value) | H (more than 50% control value) | H (more than 50% control value) | H (more than 50% control value) |
| CCC(OC)c1cc(Cl)c(=O)n(C)c1-c1c(F)cc(OC)cc1F (stereo not shown) [compound 506] | H (more than 50% control value) | H (more than 50% control value) | H (more than 50% control value) | L (50% or less control value) | H (more than 50% control value) | H (more than 50% control value) | H (more than 50% control value) | H (more than 50% control value) |
| CCC(OC)c1cc(Br)c(=O)n(CC)c1-c1c(F)cc(OC)cc1F (stereo not shown) [compound 507] | H (more than 50% control value) | H (more than 50% control value) | H (more than 50% control value) | L (50% or less control value) | H (more than 50% control value) | H (more than 50% control value) | H (more than 50% control value) | H (more than 50% control value) |
